From patent US20190239509A1, “METHOD OF CONTROLLING PLANTS” (SYNGENTA PARTICIPATIONS AG, priority 2016, published 2019)

Key:
Assay type in all cases: in vivo
[1] = system: Digitaria horizontalis (DIGHO); experiment: B3 drilled field trial Brazil, post-emergence, DIGHO; conditions: Summer season, 28 days after application
Experimental: (§1) Seeds of a variety of test species were used in drilled field trials to look at the control of important weed species present in corn crops as well as the effect on soybean (a volunteer crop in corn). Trials were carried out in Brazil in the summer season and the second season.
(§2) Plot size was 10-15 m^2, and two replicates were carried out per treatment. Plants were treated post-emergence between the 2 and 4 leaf stage. Species tested were Amaranthus retroflexus (AMARE), Ipomoea grandifolia (IAQGR), Digitaria horizontalis (DIGHO), Bidens pilosa (BIDPI), Eleusine indica (ELEIN), Brachiaria decumbens (BRADC), Centrus echinatus (CCHEC), Euphorbia heterophylla (EPPHL), Brachiaria plantaginea (BRAPL) and Glycine max (GLXMA; soybean). Fungicides and insecticides were used as necessary for plant health. The test was evaluated at 28 days after application with 100=total damage to plant and 0=no damage to plant.
(§3) Expected results were calculated using the Colby Formula.

[2] = system: Glycine max (GLXMA; soybean); experiment: B3 drilled field trial Brazil, post-emergence, soybean; conditions: 28 days after application
Experimental: as §1, §2, §3

[3] = system: Brachiaria decumbens (BRADC); experiment: B3 drilled field trial Brazil, post-emergence, BRADC; conditions: 28 days after application
Experimental: as §1, §2, §3

[4] = system: soybean (Glycine max GLXMA); experiment: B2 drilled field trial Brazil, post-emergence, soybean; conditions: 100=total damage, 0=no damage; for GLXMA 9DAA Observed: 9 days after application; for GLXMA 37 DAA Observed: 37 days after application
Experimental: (§4) Seeds of a variety of test species were used in drilled field trials to look at the control of important weed species present in corn crops as well as the effect on soybean (a volunteer crop in corn). Trials were carried out in Brazil in the summer season.
(§5) Plot size was 10-12 m^2, and two replicates were carried out per treatment. Plants were treated post-emergence at the 4 leaf stage. Fungicides and insecticides were used as necessary for plant health. The test was evaluated at 7 and 30 days after application (Amaranthus viridis (AMAVI), Bidens pilosa (BIDPI), Euphorbia heterophylla (EPPHL)) and 9 and 37 days after application (Brachiaria plantaginea (BRAPL) and soybean (Glycine max GLXMA) with 100=total damage to plant and 0=no damage to plant.
as §3

[5] = system: Bidens pilosa (BIDPI); experiment: B3 drilled field trial Brazil, post-emergence, BIDPI; conditions: 28 days after application
Experimental: as §1, §2, §3

[6] = system: Centrus echinatus (CCHEC); experiment: B3 drilled field trial Brazil, post-emergence, CCHEC; conditions: 28 days after application
Experimental: as §1, §2, §3

[7] = system: Bidens pilosa (BIDPI); experiment: B2 drilled field trial Brazil, post-emergence, BIDPI; conditions: 100=total damage, 0=no damage; for BIDPI 7DAA Observed: 7 days after application; for BIDPI 30 DAA Observed: 30 days after application
Experimental: as §4, §5, §3

[8] = system: Brachiaria plantaginea (BRAPL); experiment: B3 drilled field trial Brazil, post-emergence, BRAPL; conditions: Summer season, 28 days after application
Experimental: as §1, §2, §3

SMILES: CCOC1C(O)N(c2cc(C(C)(C)C)on2)C(=O)N1C (stereo not drawn) [Compound 1.4]
- Observed damage (100=total damage to plant, 0=no damage) ([1]; 75 g ai/ha): 45
- Observed damage (100=total damage to plant, 0=no damage) ([1]; 100 g ai/ha): 45
- Observed damage (100=total damage to plant, 0=no damage) ([1]; 150 g ai/ha): 69
- Observed damage (100=total damage to plant, 0=no damage) ([2]; Second season, 50 g ai/ha): 44
- Observed damage (100=total damage to plant, 0=no damage) ([2]; Second season, 75 g ai/ha): 56
- Observed damage (100=total damage to plant, 0=no damage) ([2]; Second season, 100 g ai/ha): 79
- Observed damage (100=total damage to plant, 0=no damage) ([2]; Second season, 150 g ai/ha): 86
- Observed damage (100=total damage to plant, 0=no damage) ([2]; Summer season, 50 g ai/ha): 44
- Observed damage (100=total damage to plant, 0=no damage) ([2]; Summer season, 75 g ai/ha): 49
- Observed damage (100=total damage to plant, 0=no damage) ([2]; Summer season, 100 g ai/ha): 60
- Observed damage (100=total damage to plant, 0=no damage) ([2]; Summer season, 150 g ai/ha): 83
- Observed damage (100=total damage to plant, 0=no damage) ([3]; Second season, 50 g ai/ha): 13
- Observed damage (100=total damage to plant, 0=no damage) ([3]; Second season, 75 g ai/ha): 21
- Observed damage (100=total damage to plant, 0=no damage) ([3]; Second season, 100 g ai/ha): 25
- Observed damage (100=total damage to plant, 0=no damage) ([3]; Second season, 150 g ai/ha): 43
- Observed damage (100=total damage to plant, 0=no damage) ([3]; Summer season, 50 g ai/ha): 18
- Observed damage (100=total damage to plant, 0=no damage) ([3]; Summer season, 75 g ai/ha): 28
- Observed damage (100=total damage to plant, 0=no damage) ([3]; Summer season, 100 g ai/ha): 25
- Observed damage (100=total damage to plant, 0=no damage) ([3]; Summer season, 150 g ai/ha): 30
- GLXMA 9DAA Observed ([4]; 75 g ai/ha): 63
- GLXMA 37 DAA Observed ([4]; 75 g ai/ha): 45
- GLXMA 9DAA Observed ([4]; 100 g ai/ha): 55
- GLXMA 37 DAA Observed ([4]; 100 g ai/ha): 0
- GLXMA 9DAA Observed ([4]; 150 g ai/ha): 73
- GLXMA 37 DAA Observed ([4]; 150 g ai/ha): 30
- Observed damage (100=total damage to plant, 0=no damage) ([5]; Second season, 50 g ai/ha): 46
- Observed damage (100=total damage to plant, 0=no damage) ([5]; Second season, 75 g ai/ha): 46
- Observed damage (100=total damage to plant, 0=no damage) ([5]; Second season, 100 g ai/ha): 48
- Observed damage (100=total damage to plant, 0=no damage) ([5]; Second season, 150 g ai/ha): 60
- Observed damage (100=total damage to plant, 0=no damage) ([5]; Summer season, 50 g ai/ha): 18
- Observed damage (100=total damage to plant, 0=no damage) ([5]; Summer season, 75 g ai/ha): 38
- Observed damage (100=total damage to plant, 0=no damage) ([5]; Summer season, 100 g ai/ha): 28
- Observed damage (100=total damage to plant, 0=no damage) ([5]; Summer season, 150 g ai/ha): 47
- Observed damage (100=total damage to plant, 0=no damage) ([6]; Second season, 50 g ai/ha): 0
- Observed damage (100=total damage to plant, 0=no damage) ([6]; Second season, 75 g ai/ha): 0
- Observed damage (100=total damage to plant, 0=no damage) ([6]; Second season, 100 g ai/ha): 0
- Observed damage (100=total damage to plant, 0=no damage) ([6]; Second season, 150 g ai/ha): 0
- Observed damage (100=total damage to plant, 0=no damage) ([6]; Summer season, 50 g ai/ha): 0
- Observed damage (100=total damage to plant, 0=no damage) ([6]; Summer season, 75 g ai/ha): 0
- Observed damage (100=total damage to plant, 0=no damage) ([6]; Summer season, 100 g ai/ha): 0
- Observed damage (100=total damage to plant, 0=no damage) ([6]; Summer season, 150 g ai/ha): 0
- BIDPI 7DAA Observed ([7]; 75 g ai/ha): 8
- BIDPI 30 DAA Observed ([7]; 75 g ai/ha): 8
- BIDPI 7DAA Observed ([7]; 100 g ai/ha): 10
- BIDPI 30 DAA Observed ([7]; 100 g ai/ha): 13
- BIDPI 7DAA Observed ([7]; 150 g ai/ha): 28
- BIDPI 30 DAA Observed ([7]; 150 g ai/ha): 20
- Observed damage (100=total damage to plant, 0=no damage) ([8]; 50 g ai/ha): 13
- Observed damage (100=total damage to plant, 0=no damage) ([8]; 75 g ai/ha): 34
- Observed damage (100=total damage to plant, 0=no damage) ([8]; 100 g ai/ha): 30
- Observed damage (100=total damage to plant, 0=no damage) ([8]; 150 g ai/ha): 31
